Reference: US20080206881A1, “DIAGNOSTIC MARKER FOR NEURODEGENERATIVE DISEASES” (priority 2007, published 2008)
Entries after “also recorded” stand apart in the source; their conditions may differ. Like-named read-outs stand apart in the source and are kept apart here.

What was measured:
ALS patients [1] = conditions: cited from earlier work
ALS patients [2] = experiment: Serum protein carbonyl determination in ALS patients (2,4-dinitrophenylhydrazine method); format: in vivo, human; conditions: for serum protein carbonyl level under high-dose vitamin E: ALS patients (n=12) on high-dose vitamin E for 10.4±2.5 months before starting melatonin
Description: Protein carbonyl content of blood serum and other body fluids can be determined according to the 2,4-dinitrophenylhydrazine method described by Levine et al. (Levine Methods Enzymol 1990: 186: 464-478). The protein content can be measured according to Lowry et al. (Lowry J Biol Chem 1951: 193: 265-275) to enable a normalization of the protein carbonyl level. Other suitable methods and reagents known in the field to measure protein content and/or the content of protein carbonyls can also be used. Protein carbonyl measurements were performed in the serum of 19 consecutively admitted ALS patients (61.7±1.9 yr, 12 males, […] daily as suppositories at bedtime) and of ten healthy controls (61.2±2.0 years, five males, five females). Protein carbonyls were determined by a variant of the 2,4-dinitrophenylhydrazine method (Levine Methods Enzymol 1990: 186: 464-478). Serum was diluted 1:10 with ice-cold 5-mM pf potassium phosphate buffer, pH 7.5, containing leupeptin (0.5 μg/mL), aprotinin (0.5 μg/mL), and pepstatin A (0.7 μg/mL); 300 μL was used for a single determination. Deviations from the original procedure concerned elimination of the chromogen: protein pellets were washed three times with 1 mL of ethanol/ ethylacetate (1:1); particular attention was given to thorough resuspension (vortexing) and complete removal of the supernatant using Pasteur pipettes, and thereafter, stripes of blotting paper. Protein was measured according to Lowry et al. (Lowry J Biol Chem 1951: 193: 265-275).

ALS mouse model = conditions: high-dose oral melatonin; U.S. Pub. No. 2004/0192745; cited from earlier work
Alzheimer's disease (AD) = conditions: in vivo; cited from earlier work
ALS patients [3] = experiment: Clinical outcome (ALSFRS) of ALS patients with or without continuous high-dose vitamin E; format: in vivo, human; conditions: ALSFRS after 1 yr of melatonin treatment
Description: Remarkably, most of these patients (n=12) had already been on high-dose vitamin E, another antioxidant, for 10.4±2.5 months before starting the melatonin treatment.

ALS = conditions: cited from earlier work; for clinical efficacy in ALS: clinical setting, literature

Nc1nc2ccc(OC(F)(F)F)cc2s1 [RILUZOLE®, 2-amino-6-(trifluoromethoxxy)benzothiazole]
other important outcome measures (ALS patients [1]): lacked benefit | side effects (ALS patients [1]): asthenia, nausea, anorexia, diarrhea, headache, and increase in liver transaminases; also recorded: enhances catabolism

COc1ccc2[nH]cc(CCNC(C)=O)c2c1 [melatonin]
serum protein carbonyl content after melatonin treatment (ALS patients [2]; ALS patients n=19, 300 mg melatonin daily as suppositories at bedtime, mean treatment time 4.68±0.22 months, versus matched healthy controls n=10): decrease to levels of matched healthy controls; also recorded: normalized to control values; also recorded: fully reverted to control levels; also recorded: normalizes the serum protein carbonyl level to control level | survival of ALS mouse model (ALS mouse model): prolongation of survival; also recorded: exhibit efficacy

vitamin E
disease progression in AD (Alzheimer's disease (AD)): slowing of disease progression | serum protein carbonyl level under high-dose vitamin E (ALS patients [2]): does not change the level of serum protein carbonyls | serum protein carbonyl level under high-dose vitamin E (ALS patients [2]; listed as Vitamin E): does not decrease the serum protein carbonyl level | clinical outcome (ALSFRS) (ALS patients [3]): did not reveal any beneficial effect | risk of developing ALS (ALS; 10-yr prospective study with over 900,000 individuals, regular intake of vitamin E): decreased risk of developing ALS | clinical efficacy in ALS (ALS): did not reveal any beneficial effect; also recorded: none of the antioxidative compounds tested, including vitamin E, proved to be effective | clinical efficacy in ALS (ALS; listed as Vitamin E): ineffective in ALS treatment
